Assay results from patent US10072034B2, “Kinase inhibitors” (Respivert Limited, priority 2016, dated 2018).
Converted amounts (≈) assume the structure as drawn. Like-named read-outs stand apart in the source and are kept apart here.

What was measured:
Jurkat cells = assay: Cell cytotoxicity assay, Jurkat cell viability (assay (r)); assay type: cell-based, human; details: 24 hours
Description: 1×10^5 Jurkat cells (immortalised human T lymphocytes) are added to the appropriate number of wells of a 96 well plate in 100 μL of media (RPMI supplemented with 10% foetal bovine serum). 1 μL of DMSO control (final concentration 1.0% v/v) or test compound (final concentration 20, 5 or 1 μg/mL) is added to the wells and incubated at 37° C., 5% CO2. After 24 hours, the plate is centrifuged at 1200 rpm for 3 minutes and the supernatant discarded. Cells are then resuspended in 150 μL (final concentration 7.5 μg/mL) of propidium iodide (PI) in PBS and incubated at 37° C., 5% CO2 for 15 minutes. After 15 minutes, cells are analysed by flow cytometry (BD accuri) using the FL3 window. The % viability is calculated as the % of cells that are P negative in the test wells normalised to the DMSO control.

[1] = Solubility and dissolution rate in phosphate-buffered saline (further studies); assay type: physicochemical; details: pH 6.5 with 0.5% by weight of simulated intestinal fluid or pH 7.2
[2] = Solubility in fasted-state simulated colonic fluid (FaSSCoF) at pH 6.5; assay type: physicochemical; details: fasted-state simulated colonic fluid (FaSSCoF), 25 °C, pH 6.5, fassgf or other biorelevant, thermodynamic from solid, pH 6.5, 25° C.
Description: The solubilities of compounds of the invention in FaSSCoF at pH 6.5 are determined using a modification of a previously-reported procedure (Vertzoni, M., et al. Pharm. Res. 2010, 27, 2187-2196). In place of the bile salt extract employed in the original procedure (which extract is no longer available), the modified procedure uses a mixture of sodium taurocholate (0.15 g), glycocholic acid (0.15 g), ursodeoxycholic acid (0.05 g), cholic acid (0.05 g), and glycodeoxycholic acid (0.05 g). These five bile acids are ground together with a mortar and pestle to produce a fine white powder that is incorporated into the FaSSCoF, as outlined below.
FaSSCoF medium: Tris(hydroxymethyl)aminomethane (Tris; 0.275 g) and maleic acid (0.44 g) are dissolved in water (35 mL) to give a solution whose pH is adjusted to 6.5 by treatment with 0.5M NaOH (ca. 12 mL). The solution is then made up to 50 mL with water. A portion of this Tris/maleate buffer solution (ca. 25 mL) is added to a 0.5 L round-bottomed flask, before being treated with 0.00565 g of the bile acid mixture described above. Solutions of phosphatidylcholine (0.0111 g) in DCM (0.15 mL) and palmitic acid (0.0013 g) in DCM (0.15 mL) are added, then the organic solvent is evaporated off under reduced pressure at 40° C. until a clear solution, with no perceptible DCM odour, is achieved. The volume of the evaporated solution is adjusted to 50 mL by addition of the remainder of Tris/maleate buffer, then BSA (0.115 g) is added, before being dissolved by gentle agitation.
Solubility Determination: Test compounds are suspended in the pH 6.5 FaSSCoF medium to give a maximum final concentration of 2-10 mg/mL. The suspensions are equilibrated at 25° C. for 24 h, before being filtered through a glass fibre C filter. The filtrates are then diluted as appropriate for injection and quantification by HPLC with reference to a standard. Different volumes of the standard, diluted and undiluted sample solutions are injected and the solubilities are calculated using the peak areas determined by integration of the peak found at the same retention time as the principal peak in the standard injection.

p38 MAPKα = p38 MAPKα (Homo sapiens (Human), UniProt Q16539); assay: p38 MAPKα enzyme inhibition (FRET, Z-LYTE; Method 2); assay type: biochemical
Chain of p38 MAPKα (Q16539 whole entry): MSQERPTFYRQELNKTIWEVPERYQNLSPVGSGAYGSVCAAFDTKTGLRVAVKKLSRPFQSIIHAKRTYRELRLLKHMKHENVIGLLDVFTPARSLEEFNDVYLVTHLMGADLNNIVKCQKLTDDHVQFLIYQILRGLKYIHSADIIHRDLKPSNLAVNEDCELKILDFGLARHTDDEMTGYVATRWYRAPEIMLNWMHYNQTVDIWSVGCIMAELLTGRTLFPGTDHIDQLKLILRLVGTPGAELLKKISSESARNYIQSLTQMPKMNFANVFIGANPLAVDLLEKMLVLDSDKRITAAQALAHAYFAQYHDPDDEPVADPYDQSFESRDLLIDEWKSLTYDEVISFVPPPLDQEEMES
Description: (§1) The enzyme inhibitory activities of compounds disclosed herein are determined by FRET using synthetic peptides labelled with both donor and acceptor fluorophores (Z-LYTE, Invitrogen Ltd., Paisley, UK).
The inhibitory activities of test compounds against the p38 MAPKα isoform (MAPK14: Invitrogen) are evaluated indirectly by determining the level of activation/phosphorylation of the down-stream molecule, MAPKAP-K2. The p38 MAPKα protein (80 ng/mL, 2.5 μL) is mixed with the test compound (2.5 μL of either 4 μg/mL, 0.4 μg/mL, 0.04 μg/mL or 0.004 μg/mL) for 2 hr at RT. […] The mixture is incubated for 1 hr at RT. Development reagent (protease, 5 μL) is added for 1 hr prior to detection in a fluorescence microplate reader (Varioskan® Flash, ThermoFisher Scientific).
This method follows the same steps as Method 1 above, but utilises a higher concentration of the p38 MAPKα protein (2.5 μL of 200 ng/mL protein instead of 2.5 μL of 80 ng/mL protein) for mixing with the test compound (tested at either 1 μg/mL, 0.1 μg/mL, 0.01 μg/mL or 0.001 μg/mL).
(§2) In all cases, the site-specific protease cleaves non-phosphorylated peptide only and eliminates the FRET signal. Phosphorylation levels of each reaction are calculated using the ratio of coumarin emission (donor) over fluorescein emission (acceptor), for which high ratios indicate high phosphorylation and low ratios indicate low phosphorylation levels. […]

[3] = test system: IFN gamma release in PBMCs; assay: IFN gamma release in CD3/CD28 stimulated PBMC cells (assay (c)); assay type: cell-based; details: Homo sapiens, read-out: IC50 Values in PBMCs IFNγ
Description: PBMCs from healthy subjects are separated from whole blood using a density gradient (Lymphoprep, Axis-Shield Healthcare). Cells are added to a 96 well plate pre-coated with a mixture of CD3/CD28 monoclonal antibodies (0.3 μg/mL eBioscience and 3 μg/mL BD Pharmingen respectively). Compound at the desired concentration is then added to the wells and the plate left for 3 days under normal tissue culture conditions. Supernatants are harvested and IL-2 and IFN gamma release determined by Sandwich ELISA (Duo-set, R&D System). The IC50 is determined from the dose response curve.

IL-8 release in PBMCs = assay: LPS-induced IL-8 release in PBMC cells (assay (b)); assay type: cell-based; details: Homo sapiens, LPS-stimulated PBMCs
Text: Peripheral blood mononuclear cells (PBMCs) from healthy subjects are separated from whole blood using a density gradient (Lymphoprep, Axis-Shield Healthcare). […] The supernatant is harvested for determination of IL-8 and TNFα concentrations by sandwich ELISA (Duo-set, R&D systems) and read on the fluorescence microplate reader (Varioskan® Flash, ThermoFisher Scientific).

Syk = Syk (Homo sapiens (Human), UniProt P43405); assay: Syk enzyme inhibition (FRET, Z-LYTE); assay type: biochemical
Description: as §1
(§3) The inhibitory activities of compounds of the invention against c-Src and Syk enzymes (Invitrogen), are evaluated in a similar fashion to that described hereinabove. The relevant enzyme (3000 ng/mL or 2000 ng/mL respectively, 2.5 μL) is incubated with the test compound (either 1 μg/mL, 0.1 μg/mL, 0.01 μg/mL, or 0.001 μg/mL, 2.5 μL each) for 2 hr at RT. The FRET peptides (8 μM. 2.5 μL), and appropriate ATP solutions (2.5 μL, 800 μM for c-Src, and 60 μM ATP for Syk) are then added to the enzymes/compound mixtures and the mixture incubated for 1 hr. Development reagent (protease, 5 μL) is added for 1 hr prior to detection in a fluorescence microplate reader (Varioskan® Flash, ThermoFisher Scientific).
as §2

c-Src = c-Src (Homo sapiens (Human), UniProt P12931); assay: c-Src enzyme inhibition (FRET, Z-LYTE); assay type: biochemical
Chain of c-Src (P12931 whole entry, looked up): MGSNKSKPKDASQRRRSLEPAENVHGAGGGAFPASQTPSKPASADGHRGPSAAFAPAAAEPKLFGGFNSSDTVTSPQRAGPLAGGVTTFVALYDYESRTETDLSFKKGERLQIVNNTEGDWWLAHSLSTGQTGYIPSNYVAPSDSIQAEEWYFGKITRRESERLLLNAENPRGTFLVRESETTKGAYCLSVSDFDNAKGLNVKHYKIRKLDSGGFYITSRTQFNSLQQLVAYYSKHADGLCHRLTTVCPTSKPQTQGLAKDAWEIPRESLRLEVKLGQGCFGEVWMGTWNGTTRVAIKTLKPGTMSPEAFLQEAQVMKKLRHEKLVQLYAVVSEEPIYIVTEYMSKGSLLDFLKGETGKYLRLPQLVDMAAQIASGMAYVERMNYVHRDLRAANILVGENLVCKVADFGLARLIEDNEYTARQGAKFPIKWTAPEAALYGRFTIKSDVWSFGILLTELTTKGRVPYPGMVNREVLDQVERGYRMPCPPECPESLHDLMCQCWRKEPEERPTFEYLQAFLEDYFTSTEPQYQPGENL
Description: as §1, §3, §2

[4] = Run 1, read-out: pH 6.5 FaSSCoF Solubility Run 1
[5] = Run 2, read-out: pH 6.5 FaSSCoF Solubility Run 2

IC50 (p38 MAPKα) [nM] | IC50 (Syk) [nM] | IC50 (c-Src) [nM] | SMILES | % Viability at 1 μg/mL (Jurkat cells) [%] | % Viability at 5 μg/mL (Jurkat cells) [%] | % Viability at 20 μg/mL (Jurkat cells) [%] | Dissolution rate relative to Reference Compounds A (hydrochloride salt) and B [1] | Solubility relative to Reference Compounds A (hydrochloride salt) and B [1] | solubility thermodynamic at 24 h [2, 4] [µg/mL] | solubility thermodynamic at 24 h [2, 5] [µg/mL] | IC50 [3] [nM] | IC50 (IL-8 release in PBMCs) [nM]
– | – | – | COCC(=O)Nc1cc(Oc2ccc(NC(=O)Nc3cc(C(C)(C)C)nn3-c3ccc(C)cc3)c3ccccc23)ccn1 [Reference compound, N-(4-(4-(3-(3-tert-butyl-1-p-tolyl-1H-pyrazol-5-yl)ureido)naphthalen-1-yloxy)pyridin-2-yl)-2-methoxyacetamide, reference compound] | 29 | 26 | 24 | – | – | – | – | – | –
– | – | – | COc1cc(Nc2cc(Oc3ccc(NC(=O)Nc4cc(C(C)(C)C)cc(NS(C)(=O)=O)c4OC)c4ccccc34)ccn2)cc(OCCOCCOCC(=O)[O-])c1.[Na+] [Example 31, 2-(2-(2-(3-((4-((4-(3-(5-(tert-Butyl)-2-methoxy-3-(methylsulfonamido)phenyl)ureido)-naphthalen-1-yl)oxy)pyridin-2-yl)amino)-5-methoxyphenoxy)ethoxy)ethoxy)acetic acid, sodium salt] | – | – | – | faster dissolution rate | more soluble than | 1900 | 2100 | – | –
23 | 8 | 14 | COc1cc(Nc2nccc(Oc3ccc(NC(=O)Nc4cc(C(C)(C)C)cc(NS(C)(=O)=O)c4OC)c4ccccc34)n2)cc(OCCOCCOCC(=O)O)c1 [Example 2, 2-(2-(2-(3-((4-((4-(3-(5-(tert-Butyl)-2-methoxy-3-(methylsulfonamido)phenyl)ureido)-naphthalen-1-yl)oxy)pyrimidin-2-yl)amino)-5-methoxyphenoxy)ethoxy)ethoxy)acetic acid] | 99 | 99 | 97 | – | – | 90 (≈ 110 µM) | 60 (≈ 73.3 µM) | 39.4 | 24.6
